Experimental data from patent publication US20250188069A1, “COMPOUNDS AND METHODS FOR DEGRADING CASEIN KINASE 1 ALPHA” (PIN THERAPEUTICS, INC., priority 2022, published 2025).
Where a name gives a salt, the structure may show the parent alone.

Test system: MV-4-11 cells
Test: AML cell viability assay (RealTime-Glo)
Format: cell-based
Conditions: Homo sapiens, MV4-11, 44 h, read-out: Cell viability classification

SMILES | IC50 [nM]
O=C1CCC(N2Cc3c(cccc3N(CCC3CC3)[C@H]3CC[C@@H](Nc4ccccn4)CC3)C2=O)C(=O)N1 (stereo partly shown) [Compound 575, 3-{4-[(2-cyclopropylethyl)[(1s,4s)-4-(pyridin-2-ylamino)cyclohexyl]amino]-1-oxo-3H-isoindol-2-yl}piperidine-2,6-dione] | 100 to 1000
O=C1CCC(N2Cc3c(cccc3N(CCC3CC3)[C@H]3CC[C@H](Nc4ccccn4)CC3)C2=O)C(=O)N1 (stereo partly shown) [Compound 576, 3-{4-[(2-cyclopropylethyl)[(1r,4r)-4-(pyridin-2-ylamino)cyclohexyl]amino]-1-oxo-3H-isoindol-2-yl}piperidine-2,6-dione] | 100 to 1000

Same assay, conditions: Homo sapiens, MV4-11; IC50 class; MV-4-11 cells, RealTime-Glo after 44 hrs of treatment (TABLE 1); read-out: Cell viability classification

IC50 [nM] | SMILES
100 to 1000 | N[C@H]1CC[C@H](N(CCCC2CCCO2)c2cccc3c2CN(C2CCC(=O)NC2=O)C3=O)CC1 (stereo partly shown) [Compound 346, 3-(4-(((1r,4r)-4-aminocyclohexyl)(3-(tetrahydrofuran-2-yl)propyl)amino)-1-oxoisoindolin-2-yl)piperidine-2,6-dione, HCl]
100 to 1000 | N[C@H]1CC[C@H](N(CCCC2COC2)c2cccc3c2CN(C2CCC(=O)NC2=O)C3=O)CC1 (stereo partly shown) [Compound 347, 3-(4-(((1r,4r)-4-aminocyclohexyl)(3-(oxetan-3-yl)propyl)amino)-1-oxoisoindolin-2-yl)piperidine-2,6-dione]
> 1000 | N[C@H]1CC[C@H](N(Cc2ccccc2)c2cccc3c2CN(C2CCC(=O)NC2=O)C3=O)CC1 (stereo partly shown) [Compound 349, 3-(4-(((1r,4r)-4-aminocyclohexyl)(benzyl)amino)-1-oxoisoindolin-2-yl)piperidine-2,6-dione]
< 100 | N[C@H]1CC[C@@H](N(CCC2CC2)c2cccc3c2CN(C2CCC(=O)NC2=O)C3=O)C1 (stereo partly drawn) [Compound 352, 3-(4-(((1R,3S)-3-aminocyclopentyl)(2-cyclopropylethyl)amino)-1-oxoisoindolin-2-yl)piperidine-2,6-dione]
100 to 1000 | N[C@H]1CC[C@@H](N(CCCC2CCOCC2)c2cccc3c2CN(C2CCC(=O)NC2=O)C3=O)C1 (stereo partly drawn) [Compound 353, 3-(4-(((1R,3S)-3-aminocyclopentyl)(3-(tetrahydro-2H-pyran-4-yl)propyl)amino)-1-oxoisoindolin-2-yl)piperidine-2,6-dione]
> 1000 | C[C@H]1CC[C@@H](N(c2cccc3c2CN(C2CCC(=O)NC2=O)C3=O)[C@@H]2CC[C@H](N)C2)CC1 (stereo partly drawn) [Compound 354, 3-(4-(((1R,3S)-3-aminocyclopentyl)((1s,4S)-4-methylcyclohexyl)amino)-1-oxoisoindolin-2-yl)piperidine-2,6-dione]
< 100 | O=C1CCC(N2Cc3c(cccc3N(CCC3CC3)[C@@H]3CC[C@H](NCC4CC4)C3)C2=O)C(=O)N1 (stereo partly drawn) [Compound 355, 3-(4-((2-cyclopropylethyl)((1R,3S)-3-((cyclopropylmethyl)amino)cyclopenty 1)amino)-1-oxoisoindolin-2-yl)piperidine-2,6-dione]
< 100 | O=C1CCC(N2Cc3c(cccc3N(CCCC3CCOCC3)[C@@H]3CC[C@H](NCC4CC4)C3)C2=O)C(=O)N1 (stereo partly drawn) [Compound 356, 3-(4-(((1R,3S)-3-((cyclopropylmethyl)amino)cyclopenty 1)(3-(tetrahydro-2H-pyran-4-yl)propyl)amino)-1-oxoisoindolin-2-yl)piperidine-2,6-dione]
< 100 | NC(=O)[C@H]1CC[C@@H](N(CCC2CC2)c2cccc3c2CN(C2CCC(=O)NC2=O)C3=O)C1 (stereo partly drawn) [Compound 359, (1S,3R)-3-((2-cyclopropylethyl)(2-(2,6-dioxopiperidin-3-yl)-1-oxoisoindolin-4-yl)amino)cyclopentane-1-carboxamide]
< 100 | CNC(=O)[C@H]1CC[C@@H](N(CCC2CC2)c2cccc3c2CN(C2CCC(=O)NC2=O)C3=O)C1 (stereo partly drawn) [Compound 360, (1S,3R)-3-((2-cyclopropylethyl)(2-(2,6-dioxopiperidin-3-yl)-1-oxoisoindolin-4-yl)amino)-N-methylcyclopentane-1-carboxamide]
100 to 1000 | NC(=O)[C@H]1CC[C@@H](N(CCCC2CCOCC2)c2cccc3c2CN(C2CCC(=O)NC2=O)C3=O)C1 (stereo partly drawn) [Compound 361, (1S,3R)-3-((2-(2,6-dioxopiperidin-3-yl)-1-oxoisoindolin-4-yl)(3-(tetrahydro-2H-pyran-4-yl)propyl)amino)cyclopentane-1-carboxamide]
100 to 1000 | CNC(=O)[C@H]1CC[C@@H](N(CCCC2CCOCC2)c2cccc3c2CN(C2CCC(=O)NC2=O)C3=O)C1 (stereo partly drawn) [Compound 362, (1S,3R)-3-((2-(2,6-dioxopiperidin-3-yl)-1-oxoisoindolin-4-yl)(3-(tetrahydro-2H-pyran-4-yl)propyl)amino)-N-methylcyclopentane-1-carboxamide]

Same assay, conditions: Homo sapiens, MV4-11; IC50 class; MV-4-11 cells, RealTime-Glo after 44 hrs of treatment (TABLE 4); read-out: Cell viability classification

SMILES | IC50 [nM]
N[C@H]1CO[C@H]2[C@@H]1OC[C@@H]2N(CCC1CC1)c1cccc2c1CN(C1CCC(=O)NC1=O)C2=O (stereo partly drawn) [Compound 550, 3-(4-{[(3S,3aR,6S,6aR)-6-amino-hexahydrofuro[3,2-b]furan-3-yl](2-cyclopropylethyl)amino}-1-oxo-3H-isoindol-2-yl)piperidine-2,6-dione] | 100 to 1000
O=C1CCC(N2Cc3c(cccc3N(CCC3(C(F)(F)F)CC3)[C@H]3CC[C@H](NC4CC(F)(F)C4)CC3)C2=O)C(=O)N1 (stereo partly shown) [Compound 554, 3-(4-(((1r,4r)-4-((3,3-difluorocyclobutyl)amino)cyclohexyl)(2-(1-(trifluoromethyl)cyclopropyl)ethyl)amino)-1-oxoisoindolin-2-yl)piperidine-2,6-dione formate] | 100 to 1000

Second part, the compound after the results:

IC50 [nM] | SMILES
100 to 1000 | O=C1CCC(N2Cc3c(cccc3N(CCC3(C(F)(F)F)CC3)[C@H]3CC[C@@H](NC4CC(F)(F)C4)CC3)C2=O)C(=O)N1 (stereo partly shown) [Compound 554A, 3-(4-(((1s,4s)-4-((3,3-difluorocyclobutyl)amino)cyclohexyl)(2-(1-(trifluoromethyl)cyclopropyl)ethyl)amino)-1-oxoisoindolin-2-yl)piperidine-2,6-dione]
100 to 1000 | O=C1CCC(N2Cc3c(cccc3N(CC3CC4(CCC4)C3)[C@H]3CC[C@H](NC4CC(F)(F)C4)CC3)C2=O)C(=O)N1 (stereo partly shown) [Compound 557, 3-(1-oxo-4-{[(1r,4r)-4-[(3,3-difluorocyclobutyl)amino]cyclohexyl]({spiro[3.3]heptan-2-ylmethyl})amino}-3H-isoindol-2-yl)piperidine-2,6-dione]
< 100 | N[C@H]1C[C@H](CN(CC2CC3(CCC3)C2)c2cccc3c2CN(C2CCC(=O)NC2=O)C3=O)C1 (stereo partly shown) [Compound 558-2, 3-[1-oxo-4-({[(1r,3r)-3-aminocyclobutyl]methyl}({spiro[3.3]heptan-2-ylmethyl})amino)-3H-isoindol-2-yl]piperidine-2,6-dione]
< 100 | O=C1CCC(N2Cc3c(cccc3N(CCC3CC3)[C@H]3CC[C@H](NCC(=O)N4CCC(F)(F)CC4)CC3)C2=O)C(=O)N1 (stereo partly shown) [Compound 561, 3-{4-[(2-cyclopropylethyl)[(1r,4r)-4-{[2-(4,4-difluoropiperidin-1-yl)-2-oxoethyl]amino}cyclohexyl]amino]-1-oxo-3H-isoindol-2-yl}piperidine-2,6-dione]
100 to 1000 | CCN(CC)C(=O)CN[C@H]1CC[C@H](N(CCC2CC2)c2cccc3c2CN(C2CCC(=O)NC2=O)C3=O)CC1 (stereo partly shown) [Compound 562, N,N-diethyl-2-{[(1r,4r)-4-[(2-cyclopropylethyl)[2-(2,6-dioxopiperidin-3-yl)-1-oxo-3H-isoindol-4-yl]amino]cyclohexyl]amino}acetamide]
< 100 | O=C1CCC(N2Cc3c(cccc3N(CCC3CC3)[C@H]3CC[C@@H](c4nnc[nH]4)CC3)C2=O)C(=O)N1 (stereo partly shown) [Compound 573, 3-{4-[(2-cyclopropylethyl)[(1s,4s)-4-(4H-1,2,4-triazol-3-yl)cyclohexyl]amino]-1-oxo-3H-isoindol-2-yl}piperidine-2,6-dione; formate]
100 to 1000 | O=C1CCC(N2Cc3c(cccc3N(CCC3CC3)[C@H]3CC[C@H](c4nnc[nH]4)CC3)C2=O)C(=O)N1 (stereo partly shown) [Compound 574, 3-{4-[(2-cyclopropylethyl)[(1r,4r)-4-(4H-1,2,4-triazol-3-yl)cyclohexyl]amino]-1-oxo-3H-isoindol-2-yl}piperidine-2,6-dione; formate]
> 1000 | O=C1CCC(N2Cc3c(cccc3N(CCC3CC3)[C@H]3CC[C@H](NCC(F)(F)F)CC3)C2=O)C(=O)N1 (stereo partly shown) [Compound 580, 3-{4-[(2-cyclopropylethyl)[(1r,4r)-4-[(2,2,2-trifluoroethyl)amino]cyclohexyl]amino]-1-oxo-3H-isoindol-2-yl}piperidine-2,6-dione]
< 100 | O=C1CCC(N2Cc3c(cccc3N(CCC3CC3)[C@H]3CC[C@H](NCC4(C(F)(F)F)CC4)CC3)C2=O)C(=O)N1 (stereo partly shown) [Compound 582, 3-{4-[(2-cyclopropylethyl)[(1r,4r)-4-({[1-(trifluoromethyl)cyclopropyl]methyl}amino)cyclohexyl]amino]-1-oxo-3H-isoindol-2-yl}piperidine-2,6-dione]
100 to 1000 | CC(N[C@H]1CC[C@H](N(CCC2CC2)c2cccc3c2CN(C2CCC(=O)NC2=O)C3=O)CC1)C(F)F (stereo partly shown) [Compound 583, 3-{4-[(2-cyclopropylethyl)[(1r,4r)-4-[(1,1-difluoropropan-2-yl)amino]cyclohexyl]amino]-1-oxo-3H-isoindol-2-yl}piperidine-2,6-dione]
< 100 | N#CC1(CN[C@H]2CC[C@H](N(CCC3CC3)c3cccc4c3CN(C3CCC(=O)NC3=O)C4=O)CC2)CC1 (stereo partly shown) [Compound 611, 1-({[(1r,4r)-4-[(2-cyclopropylethyl)[2-(2,6-dioxopiperidin-3-yl)-1-oxo-3H-isoindol-4-yl]amino]cyclohexyl]amino}methyl)cyclopropane-1-carbonitrile]
100 to 1000 | O=C1CCC(N2Cc3c(cccc3N(CCC3CC3)[C@H]3CC[C@@H](NCC4(F)CC4)CC3)C2=O)C(=O)N1 (stereo partly shown) [Compound 612A, 3-{4-[(2-cyclopropylethyl)[(1s,4s)-4-{[(1-fluorocyclopropyl)methyl]amino}cyclohexyl]amino]-1-oxo-3H-isoindol-2-yl}piperidine-2,6-dione]
